Measured values from patent US11447470B2, “Pyrimidinone-containing compound, preparation method thereof, pharmaceutical composition and application thereof” (YUNNAN UNIVERSITY, priority 2018, dated 2022).
Where two headings read alike, the source gives them in different places.

Assays:
[1] = test system: HIV-1IIIB; assay: Syncytium inhibition experiment, C8166 cells infected with HIV-1IIIB; type: cell-based; details: Human immunodeficiency virus 1, 72 h; HIV-1IIIB (MOI=0.04) in C8166 cells, syncytium count, three days
Method: (§1) C8166 cells infected with HIV-1 were used for determining the anti-HIV biological activity at the cellular level. The specific method was described below.
Syncytium inhibition experiment: 100 μL of C8166 cell suspension (4×10^5/mL) was seeded into each well of 96-well cell culture plates containing 5-fold serial dilutions of the compounds, followed by addition of HIV-1IIIB diluted supernatant (MOI=0.04). Triplicate wells were set for each serial concentration. […] The cells were cultured at 37° C. in a 5% CO2 incubator for three days. The number of the syncytia was counted in five non-overlapping fields of view by using an inverted microscope (100×).

[2] = Cytotoxicity experiment (MTT method) on C8166 cells; type: cell-based; details: human
Method: as §1
Cytotoxicity experiment: The toxicity of the compounds on C8166 cells was determined by MTT method. In 96-well cell culture plates, the compounds were subjected to 5-fold serial dilution and 100 μL of C8166 cell suspension (4×10^5/mL) was added into each well. Triplicate wells were set for each concentration. […] The cells were incubated at 37° C. in a 5% CO2 incubator for three days, followed by the addition of MTT solution into each well, and then the cells were incubated at 37° C. for 4 hours. 10% SDS-50% DMF was added into each well and the cells were incubated at 37° C. in a 5% CO2 incubator overnight. After mixing evenly, the OD values were measured by BIO-TEK ELx800 ELISA instrument (determination wavelength: 570 nm; reference wavelength: 630 nm).

[3] = C8166 cells, MTT, three days, read-out: CC50

| EC50 [1] [µM] | Structure (SMILES) | CC50 at 3 days [2] [µM] | CC50 at 3 days [2, 3] [µM] |
| --- | --- | --- | --- |
| 0.049 | Cc1cn([C@H]2C[C@H](N=[N+]=[N-])[C@@H](CO)O2)c(=O)[nH]c1=O [AZT, Zidovudine, reference compound] | > 749 | – |
| 0.099 | CCc1c(CC2CCCCC2)nc(SCc2n[nH]c(-c3ccccc3)c2Cl)[nH]c1=O [Compound I-01] | – | – |
| 0.007 | CCc1c(CC2CCCCC2)nc(SCc2cc(-c3ccccc3)[nH]n2)[nH]c1=O [Compound I-02] | – | – |
| 0.051 | CCc1c(CC2CCCCC2)nc(SCc2cc(-c3cccc(Br)c3)[nH]n2)[nH]c1=O [Compound I-03] | – | – |
| 0.101 | CCc1c(CC2CCCCC2)nc(SCc2n[nH]c(-c3cccc(Br)c3)c2Cl)[nH]c1=O [Compound I-04] | – | – |
| 0.066 | CCc1c(CC2CCCCC2)nc(SCc2cc(-c3cccc(Cl)c3)[nH]n2)[nH]c1=O [Compound I-05] | – | – |
| 0.057 | CCc1c(CC2CCCCC2)nc(SCc2n[nH]c(-c3cccc(Cl)c3)c2Cl)[nH]c1=O [Compound I-06] | – | – |
| 0.018 | CCc1c(CC2CCCCC2)nc(SCc2cc(-c3ccc(Cl)cc3)[nH]n2)[nH]c1=O [Compound I-07] | – | – |
| 0.02 | CCc1c(CC2CCCCC2)nc(SCc2cc(-c3ccc(F)cc3)[nH]n2)[nH]c1=O [Compound I-08] | – | – |
| 0.018 | CCc1c(CC2CCCCC2)nc(SCc2n[nH]c(-c3ccc(F)cc3)c2Cl)[nH]c1=O [Compound I-09] | – | – |
| 0.023 | CCc1c(CC2CCCCC2)nc(SCc2cc(-c3ccc(OC)cc3)[nH]n2)[nH]c1=O [Compound I-10] | – | – |
| 0.13 | CCc1c(CC2CCCCC2)nc(SCc2n[nH]c(-c3ccc(OC)c(Cl)c3)c2Cl)[nH]c1=O [Compound I-11] | – | – |
| 0.31 | CCc1c(CC2CCCCC2)nc(SCc2cc(-c3ccc(Cl)c(Cl)c3)[nH]n2)[nH]c1=O [Compound I-12] | – | – |
| 0.035 | CCc1c(CC2CCCCC2)nc(SCc2cc(-c3cccc(F)c3)[nH]n2)[nH]c1=O [Compound I-14] | – | – |
| 0.071 | CCc1c(CC2CCCCC2)nc(SCc2n[nH]c(-c3cccc(F)c3)c2Cl)[nH]c1=O [Compound I-15] | – | – |
| 0.089 | CCc1c(CC2CCCCC2)nc(SCc2n[nH]c(-c3ccc(Cl)cc3)c2Cl)[nH]c1=O [Compound I-16] | – | – |
| 0.004 | CCc1c(CC2CCCCC2)nc(SCc2cc(-c3ccc(O)cc3)[nH]n2)[nH]c1=O [Compound I-17] | – | – |
| 0.162 | CCc1c(CC2CCCCC2)nc(SCc2cc(-c3ccc(F)c(F)c3)[nH]n2)[nH]c1=O [Compound I-18] | – | – |
| 0.151 | CCc1c(CC2CCCCC2)nc(SCc2n[nH]c(-c3ccc(F)c(F)c3)c2Cl)[nH]c1=O [Compound I-19] | – | – |
| 0.042 | CCc1c(CC2CCCCC2)nc(SCc2cc(-c3ccc(F)cc3F)[nH]n2)[nH]c1=O [Compound I-20] | – | – |
| 0.138 | CCc1c(CC2CCCCC2)nc(SCc2n[nH]c(-c3ccc(C)cc3)c2Cl)[nH]c1=O [Compound I-22] | – | – |

| EC50 [1] [µM] | Structure (SMILES) | CC50 at 3 days [2] [µM] | CC50 at 3 days [2, 3] [µM] |
| --- | --- | --- | --- |
| 0.086 | CCc1c(CC2CCCCC2)nc(SCc2n[nH]c(-c3cccc(C)c3)c2Cl)[nH]c1=O [Compound I-24] | – | – |
| 0.012 | CCc1c(CC2CCCCC2)nc(SCc2cc(-c3ccc(SC)cc3)[nH]n2)[nH]c1=O [Compound I-25] | – | – |
| 0.302 | CCc1c(CC2CCCCC2)nc(SCc2cc(-c3cccc(C(F)(F)F)c3)[nH]n2)[nH]c1=O [Compound I-26] | – | – |
| 0.182 | CCc1c(CC2CCCCC2)nc(SCc2n[nH]c(-c3cccc(C(F)(F)F)c3)c2Cl)[nH]c1=O [Compound I-27] | – | – |
| 0.147 | CCc1c(CC2CCCCC2)nc(SCc2cc(-c3ccc(C(C)C)cc3)[nH]n2)[nH]c1=O [Compound I-28] | – | – |
| 0.476 | CCc1c(CC2CCCCC2)nc(SCc2cc(-c3ccc(C)cc3C)[nH]n2)[nH]c1=O [Compound I-29] | – | – |
| 0.296 | CCc1c(CC2CCCCC2)nc(SCc2cc(C(C)(C)C)[nH]n2)[nH]c1=O [Compound I-30] | – | – |
| 0.033 | CCc1c(CC2CCCCC2)nc(SCc2cc[nH]n2)[nH]c1=O [Compound I-31] | – | – |
| 0.028 | CCc1c(CC2CCCCC2)nc(SCc2cc(C)[nH]n2)[nH]c1=O [Compound I-32] | – | – |
| 0.025 | CCc1c(CC2CCCCC2)nc(SCc2cc(C3CC3)[nH]n2)[nH]c1=O [Compound I-33] | – | – |
| 0.023 | CCc1c(CC2CCCCC2)nc(SCc2cc(-c3ccccn3)[nH]n2)[nH]c1=O [Compound I-34] | – | – |
| 0.002 | CC(C)c1c(CC2CCCCC2)nc(SCc2cc(-c3ccccc3)[nH]n2)[nH]c1=O [Compound I-35] | 104 | – |
| 0.009 | CC(C)c1c(CC2CCCCC2)nc(SCc2cc(-c3ccc(Cl)cc3)[nH]n2)[nH]c1=O [Compound I-36] | 91.2 | – |
| 0.006 | CC(C)c1c(CC2CCCCC2)nc(SCc2n[nH]c(-c3ccc(F)cc3)c2Cl)[nH]c1=O [Compound I-37] | 73 | – |
| 0.003 | CC(C)c1c(CC2CCCCC2)nc(SCc2cc(-c3ccc(O)cc3)[nH]n2)[nH]c1=O [Compound I-38] | 156 | – |
| 0.016 | CC(C)c1c(CC2CCCCC2)nc(SCc2cc(-c3ccc(F)cc3)[nH]n2)[nH]c1=O [Compound I-39] | 99 | – |
| 0.186 | Cc1c(CC2CCCCC2)nc(SCc2cc(-c3ccccc3)[nH]n2)[nH]c1=O [Compound I-41] | – | – |
| 0.355 | Cc1c(CC2CCCCC2)nc(SCc2cc(-c3ccc(F)cc3)[nH]n2)[nH]c1=O [Compound I-42] | – | – |
| 0.194 | COc1ccc(-c2cc(CSc3nc(CC4CCCCC4)c(C)c(=O)[nH]3)n[nH]2)cc1 [Compound I-43] | – | – |
| 5.34 | O=c1cc(CC2CCCCC2)nc(SCc2cc(-c3ccccc3)[nH]n2)[nH]1 [Compound I-44] | – | – |
| 10.1 | O=c1cc(CC2CCCCC2)nc(SCc2cc(-c3ccc(F)cc3)[nH]n2)[nH]1 [Compound I-45] | – | – |

| EC50 [1] [µM] | Structure (SMILES) | CC50 at 3 days [2] [µM] | CC50 at 3 days [2, 3] [µM] |
| --- | --- | --- | --- |
| 3.96 | COc1ccc(-c2cc(CSc3nc(CC4CCCCC4)cc(=O)[nH]3)n[nH]2)cc1 [Compound I-46] | – | – |
| 0.142 | Cc1c(CC2CCCCC2)nc(SCc2cc(-c3ccc(O)cc3)[nH]n2)[nH]c1=O [Compound I-47] | 61.8 | – |
| 0.927 | O=c1cc(CC2CCCCC2)nc(SCc2n[nH]c(-c3ccccc3)c2Cl)[nH]1 [Compound I-48] | 98.9 | – |
| 2.97 | CCc1c(Cc2ccc3c(c2)OCO3)nc(SCc2cc(-c3ccc(F)cc3)[nH]n2)[nH]c1=O [Compound I-50] | 78 | – |
| 0.602 | CCc1c(Cc2c(Cl)cccc2Cl)nc(SCc2cc(-c3ccc(F)cc3)[nH]n2)[nH]c1=O [Compound I-51] | 45.5 | – |
| 3.88 | O=c1cc(CC2CCCCC2)nc(SCc2n[nH]c(-c3ccc(F)c(F)c3)c2Cl)[nH]1 [Compound I-54] | 89 | – |
| 0.587 | Cc1c(CC2CCCCC2)nc(SCc2n[nH]c(-c3ccc(F)c(F)c3)c2Cl)[nH]c1=O [Compound I-56] | 40.3 | – |
| 0.08 | CCc1c(Cc2cc(F)cc(F)c2)nc(SCc2n[nH]c(-c3ccc(F)c(F)c3)c2Cl)[nH]c1=O [Compound I-57] | 81.1 | – |
| 0.4 | CCc1c(Cc2ccccc2)nc(SCc2cc(-c3ccc(F)c(F)c3)[nH]n2)[nH]c1=O [Compound I-58] | 81 | – |
| 23.9 | O=c1cc(CC2CCCCC2)nc(SCc2cc(-c3ccc(F)c(F)c3)[nH]n2)[nH]1 [Compound I-59] | 89.1 | – |
| 0.733 | CCc1c(Cc2c(Cl)cccc2Cl)nc(SCc2cc(-c3ccc(F)c(F)c3)[nH]n2)[nH]c1=O [Compound I-60] | 64.9 | – |
| 0.124 | CCc1c(Cc2cc(F)cc(F)c2)nc(SCc2cc(-c3ccc(F)c(F)c3)[nH]n2)[nH]c1=O [Compound I-61] | 46.4 | – |
| 4.98 | CCc1c(Cc2ccc3c(c2)OCO3)nc(SCc2cc(-c3ccc(F)c(F)c3)[nH]n2)[nH]c1=O [Compound I-62] | > 200 | – |
| 0.063 | CCc1c(Cc2cc(F)cc(F)c2)nc(SCc2n[nH]c(-c3ccc(F)cc3)c2Cl)[nH]c1=O [Compound I-63] | > 200 | – |
| 0.643 | CCc1c(Cc2c(Cl)cccc2Cl)nc(SCc2n[nH]c(-c3ccc(F)cc3)c2Cl)[nH]c1=O [Compound I-64] | > 200 | – |
| 0.37 | CCc1c(Cc2ccc3c(c2)OCO3)nc(SCc2n[nH]c(-c3ccc(F)cc3)c2Cl)[nH]c1=O [Compound I-65] | > 200 | – |
| 0.847 | O=c1cc(CC2CCCCC2)nc(SCc2n[nH]c(-c3ccc(F)cc3)c2Cl)[nH]1 [Compound I-67] | > 200 | – |
| 0.111 | Cc1c(CC2CCCCC2)nc(SCc2n[nH]c(-c3ccc(F)cc3)c2Cl)[nH]c1=O [Compound I-68] | > 200 | – |
| 0.0584 | Cc1ccnc2c1NC(=O)c1cccnc1N2C1CC1 [NVP, Nevirapine, reference compound] | – | – |

| Structure (SMILES) | EC50 [1] [µM] | CC50 at 3 days [2] [µM] | CC50 at 3 days [2, 3] [µM] |
| --- | --- | --- | --- |
| CCc1c(CC2CCCCC2)nc(SCc2cc(-c3ccc(C)cc3)[nH]n2)[nH]c1=O [Compound I-21] | 0.074 | – | 82.8 |
| CCc1c(CC2CCCCC2)nc(SCc2cc(-c3cccc(C)c3)[nH]n2)[nH]c1=O [Compound I-23] | 0.052 | – | 91.4 |
